Test results reported in patent publication US12594261B2, “Use of heterocyclic derivatives with cardiomyocyte proliferation activity for treatment of heart diseases” (SHANGHAI EAST HOSPITAL (EAST HOSPITAL, TONGJI UNIVERSITY …, priority 2019, dated 2026).

Test system: neonatal rat ventricular myocytes (NRVMs)
Experiment: Myocyte proliferation assay (EdU) in neonatal rat ventricular myocytes
Assay type: cell-based
Settings: Rattus norvegicus, Ventricular myocyte, growth relative to blank myocyte growth without compound added; for activation at 1 µM: 1 uM compound; for activation at 3 µM: 3 uM compound; for activation at 10 µM: 10 uM compound
Method: 1. Isolation of and Culture Neonatal Rat Ventricular Myocytes (NRVMs)
Ventricles from neonatal rats were separated from the atria, cut into small pieces (about 2×2 mm^2) and then dissociated in Ca^2+-free HBSS containing 0.125 mg ml-1 trypsin (Gibco), 10 μg ml-1 DNase II (Sigma) and 0.1 mg ml-1 collagenase type IV (Sigma). The digestion was carried out under constant stirring at 37° C. for 5 min. The supernatant was collected with FBS (Gibco) after each digestion period. After digestion, the collected supernatant was centrifuged at 1000 g for 10 min at room temperature, and then cell pellets were resuspended in DMEM (Gibco) supplemented with 10% FBS and with 100 uM 5-bromo-2′-deoxyuridine (Sigma). The resuspended cells were passed through a cell strainer ([…], BD Falcon) and seeded onto 100-mm plastic dishes for 2 h at 37° C. in a 5% CO2 to remove fibroblasts, the supernatant was then collected and plated onto 1% gelatin (Sigma)-coated dishes. 24 h after the seeding, the medium was changed to DMEM (Gibco) containing 2% FBS (Gibco), 1% insulin-transferrin-selenium (ITS; Gibco), 1% Penicillin-Streptomycin (Gibco). After 24 hours of low serum culture, remove the medium with DMEM (Gibco) containing 6% FBS (Gibco), 1% insulin-transferrin-selenium (ITS; Gibco), 1% Penicillin-Streptomycin (Gibco), different concentrations of compounds (the compounds were pre-diluted in the medium and the drug concentration was 10 uM, 3 uM, 1 uM, fully mixed). After 36 h add Edu substrate (Invitrogen) according to the manufacturer's guidelines, and then after 12 h cell can be used.
2.1. Immobilization: Remove the medium and fix the cells with […] in 200 ul (whichever is covered) for 15 min and wash the cells twice with 500 ul of PBS for 5 min each time.
2.2. Broken membrane: Add 200 ul of 0.3% Triton-X 100 (diluted in PBS) to each well, incubate for 10-15 min at room temperature (the time should not be too long), and wash the cells twice with 500 ul of PBS for 5 min each time.
2.3. Blocking: Add 200 ul of 10% normal goat serum (diluted with 0.1% PBST) to each well, incubate for 1 h at room temperature, and wash twice with 500 ul of 0.1% PBST for 5 min each time.
2.4. Primary antibody: dilute the primary antibody (abcam, ab8295) to blocking solution at a ratio of 1:200, add 100 ul per well, incubate for 1 h at room temperature (may be slightly longer than 2-3 h), wash the cells twice with 500 ul 0.1% PBST for 5 min each time.
2.5. Secondary antibody: Dilute the fluorescently labeled secondary antibody (abcam, ab150117) into blocking solution at a ratio of 1:200, add 100 ul per well, incubate for 1 h at room temperature (the time should not be too long), wash the cells twice with 0.1% PBST for 5 min each time, pay attention to the whole process. Protected from light.
2.6. Edu staining (Invitrogen C10338)
2.6.1 Prepare Click-iT® reaction cocktail according to Table 3. It was important to add the ingredients in the order listed in the table; otherwise, the reaction would not proceed optimally. Use the Click-iT® reaction cocktail within 15 minutes of preparation.
2.6.2 Add 0.1 mL of Click-iT® reaction cocktail to each well containing a coverslip. Rock the plate briefly to ensure that the reaction cocktail is distributed evenly over the coverslip.
2.6.3 Incubate the plate for 30 minutes at room temperature, protected from light.
2.6.4 Remove the reaction cocktail, then wash the cells twice with 0.1% PBST for 5 min each time.
2.7. DAPI staining: DAPI stain was diluted to PBS at a ratio of 1:1000, 100 ul per well, incubated for 30 min at room temperature, and the cells were washed twice with PBS for 5 min each.
We used Molecular Devices' Image Xpress Micro Confocal for high-throughput photo and data analysis.

SMILES | activation at 1 µM [%] | activation at 3 µM [%] | activation at 10 µM [%]
CN1C(=O)/C(=C/c2ccc(F)cc2)N=C1N [TJU-B050, (4Z)-2-amino-4-[(4-fluorophenyl)methylidene]-1-methyl-4,5-dihydro-1H-imidazol-5-one] | < 10 | < 10 | 10 to 50
O=C1NC(C2CC2)=N/C1=C\c1ccc2c(c1)OCO2 [TJU-B059, (4Z)-4-[(2H-1,3-benzodioxol-5-yl)methylidene]-2-cyclopropyl-4,5-dihydro-1H-imidazol-5-one] | < 10 | < 10 | < 10
NC1=N/C(=C\c2ccc3c(c2)OCO3)C(=O)N1 [TJU-B034, (4Z)-2-amino-4-[(2H-1,3-benzodioxol-5-yl)methylidene]-4,5-dihydro-1H-imidazol-5-one] | < 10 | < 10 | 10 to 50
CN1C(=O)/C(=C/c2ccccc2F)N=C1N [TJU-B067, (4Z)-2-amino-4-[(2-fluorophenyl)methylidene]-1-methyl-4,5-dihydro-1H-imidazol-5-one] | < 10 | < 10 | < 10
O=C1NC(NCCN2CCOCC2)=N/C1=C\c1ccc2c(c1)OC(F)(F)O2 [TJU-B066, (4Z)-4-[(2,2-difluoro-2H-1,3-benzodioxol-5-yl)methylidene]-2-{[2-(morpholin-4-yl)ethyl]amino}-4,5-dihydro-1H-imidazol-5-one] | 10 to 50 | < 10 | < 10
COc1cccc(/C=C2\N=C(N)N(C)C2=O)c1 [TJU-B036, (4Z)-2-amino-4-[(3-methoxyphenyl)methylidene]-1-methyl-4,5-dihydro-1H-imidazol-5-one] | 10 to 50 | < 10 | 10 to 50
O=C1NC(Nc2ccccc2)=N/C1=C\c1ccc2c(c1)OCCO2 [TJU-B007, (4Z)-4-[(2,3-dihydro-1,4-benzodioxin-6-yl)methylidene]-2-(phenylamino)-4,5-dihydro-1H-imidazol-5-one] | < 10 | 10 to 50 | > 50
N#Cc1ccc(NC2=N/C(=C\c3ccc4c(c3)OCO4)C(=O)N2)cc1 [TJU-B058, 4-{[(4Z)-4-[(2H-1,3-benzodioxol-5-yl)methylidene]-5-oxo-4,5-dihydro-1H-imidazol-2-yl]amino} benzonitrile] | 10 to 50 | < 10 | < 10
O=C1NC(Nc2ccccc2)=N/C1=C\c1ccc2c(c1)OCO2 [TJU-B043, (4Z)-4-[(2H-1,3-benzodioxol-5-yl)methylidene]-2-(phenylamino)-4,5-dihydro-1H-imidazol-5-one] | 10 to 50 | 10 to 50 | 10 to 50
CN1C(=O)/C(=C/c2cccc(Cl)c2)N=C1N [TJU-B056, (4Z)-2-amino-4-[(3-chlorophenyl)methylidene]-1-methyl-4,5-dihydro-1H-imidazol-5-one] | < 10 | < 10 | < 10
O=C1NC(NCC2CC2)=N/C1=C\c1ccc2c(c1)OCO2 [TJU-B029, (4Z)-4-[(2H-1,3-benzodioxol-5-yl)methylidene]-2-[(cyclopropylmethyl)amino]-4,5-dihydro-1H-imidazol-5-one] | < 10 | < 10 | 10 to 50
O=C1NC(Nc2ccccc2)=N/C1=C\c1ccc2c(c1)OC(F)(F)O2 [TJU-B028, (4Z)-4-[(2,2-difluoro-2H-1,3-benzodioxol-5-yl)methylidene]-2-(phenylamino)-4,5-dihydro-1H-imidazol-5-one] | < 10 | < 10 | 10 to 50
O=C1NC(Nc2ccc3c(c2)OCO3)=N/C1=C\c1ccc2c(c1)OCO2 [TJU-B027, (4Z)-2-[(2H-1,3-benzodioxol-5-yl)amino]-4-[(2H-1,3-benzodioxol-5-yl)methylidene]-4,5-dihydro-1H-imidazol-5-one] | < 10 | < 10 | 10 to 50
CN1C(=O)/C(=C/c2ccc3c(c2)OCO3)N=C1NCC1CC1 [TJU-B052, (4Z)-4-[(2H-1,3-benzodioxol-5-yl)methylidene]-2-[(cyclopropylmethyl)amino]-1-methyl-4,5-dihydro-1H-imidazol-5-one] | 10 to 50 | 10 to 50 | 10 to 50
O=C1NC(Nc2ccccc2)=NC1Cc1ccc2c(c1)OCO2 (centres unmarked) [TJU-B005, 4-[(2H-1,3-benzodioxol-5-yl)methyl]-2-(phenylamino)-4,5-dihydro-1H-imidazol-5-one] | 10 to 50 | < 10 | > 50
COc1ccc(NC2=N/C(=C\c3ccc4c(c3)OCO4)C(=O)N2)cc1 [TJU-B009, (4Z)-4-[(2H-1,3-benzodioxol-5-yl)methylidene]-2-[(4-methoxyphenyl)amino]-4,5-dihydro-1H-imidazol-5-one] | 10 to 50 | 10 to 50 | > 50
O=C1NC(c2ccccc2)=N/C1=C\c1ccc2c(c1)OCO2 [TJU-B039, (4Z)-4-[(2H-1,3-benzodioxol-5-yl)methylidene]-2-phenyl-4,5-dihydro-1H-imidazol-5-one] | < 10 | – | 10 to 50
O=C1NC(Nc2ccc(Cl)cc2)=N/C1=C\c1ccc2c(c1)OCO2 [TJU-B060, (4Z)-4-[(2H-1,3-benzodioxol-5-yl)methylidene]-2-[(4-chlorophenyl)amino]-4,5-dihydro-1H-imidazol-5-one] | < 10 | < 10 | < 10
CC(C)NC1=N/C(=C\c2ccc3c(c2)OCO3)C(=O)N1 [TJU-B038, (4Z)-4-[(2H-1,3-benzodioxol-5-yl)methylidene]-2-[(propan-2-yl)amino]-4,5-dihydro-1H-imidazol-5-one] | 10 to 50 | 10 to 50 | 10 to 50
CN1C(=O)/C(=C/c2ccc3c(c2)OCO3)N=C1Nc1ccccc1 [TJU-B014, (4Z)-4-[(2H-1,3-benzodioxol-5-yl)methylidene]-1-methyl-2-(phenylamino)-4,5-dihydro-1H-imidazol-5-one] | < 10 | 10 to 50 | > 50
COc1ccccc1NC1=N/C(=C\c2ccc3c(c2)OCO3)C(=O)N1 [TJU-B254, (4Z)-4-[(2H-1,3-benzodioxol-5-yl)methylidene]-2-[(2-methoxyphenyl)amino]-4,5-dihydro-1H-imidazol-5-one] | < 10 | < 10 | < 10
COc1cc(/C=C2\N=C(N)NC2=O)cc2c1OCO2 [TJU-B065, (4Z)-2-amino-4-[(7-methoxy-2H-1,3-benzodioxol-5-yl)methylidene]-4,5-dihydro-1H-imidazol-5-one] | < 10 | < 10 | < 10
